Laboratory results published in patent publication US4897397A, “Aryl-alkynoic, alkenoic or alkanoic compounds and compositions useful as antiallergy and anti-inflammatory agents” (Schering Corporation, priority 1988, dated 1990).

Each compound was assayed against T1, 5-Lipoxygenase (Mus musculus, UniProt P48999) (assay: 5-Lipoxygenase Assay (inhibition of LTC4 and 5-HETE production in MC-9 mast cells)). Settings: MC-9 murine mast cells, [14C]-arachidonic acid, A23187.
T1 construct: Use the interleukin-3-dependent murine mast cell clone, MC-9; endogenous in cells; host or cells: MC-9 murine mast cell clone (interleukin-3-dependent)
T1 sequence (P48999 1-674): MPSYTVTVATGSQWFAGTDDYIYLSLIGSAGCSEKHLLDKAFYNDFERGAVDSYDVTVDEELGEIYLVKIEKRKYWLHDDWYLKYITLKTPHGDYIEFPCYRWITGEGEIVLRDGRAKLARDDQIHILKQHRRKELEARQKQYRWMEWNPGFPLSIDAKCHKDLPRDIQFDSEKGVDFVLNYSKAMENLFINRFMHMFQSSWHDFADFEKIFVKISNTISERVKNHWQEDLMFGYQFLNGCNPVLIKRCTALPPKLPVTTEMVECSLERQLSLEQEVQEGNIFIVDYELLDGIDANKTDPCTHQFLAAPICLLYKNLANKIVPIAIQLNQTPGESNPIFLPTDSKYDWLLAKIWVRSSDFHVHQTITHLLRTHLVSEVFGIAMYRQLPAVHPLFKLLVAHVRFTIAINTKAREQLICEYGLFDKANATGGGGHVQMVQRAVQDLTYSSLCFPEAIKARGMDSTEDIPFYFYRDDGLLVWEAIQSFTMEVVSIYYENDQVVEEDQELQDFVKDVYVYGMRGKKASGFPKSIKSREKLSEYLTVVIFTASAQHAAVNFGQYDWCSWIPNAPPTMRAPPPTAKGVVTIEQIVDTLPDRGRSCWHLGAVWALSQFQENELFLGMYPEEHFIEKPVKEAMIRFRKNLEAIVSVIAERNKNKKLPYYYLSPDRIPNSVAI
Type: cell-based
Text: Use the interleukin-3-dependent murine mast cell clone, MC-9, to test the effects of representative compounds of the invention on lipoxygenase activity. Grow the MC-9 cell line in suspension culture (0.4 to 1.2×10^6 cells/ml) in RPMI 1640 medium (Gibco) with 10% fetal bovine serum (Hyclone) and 2-5% concanavalin-A conditioned supernatant (Musch et. al., (1985) Prostagandins 29, 405-4307). Harvest the cells, wash them twice by centrifugation, and resuspend them in a Ca^++ -free HEPES buffer (25 mM HEPES, 125 mM NaCl, 2.5 mMKCl, 0.7 mM MgCl2 0.5 mM EDTA and 10 mM glucose at pH 7.4).
Preincubate MC-9 cells (0.39 ml at 7.5×10^6 cells/ml) without or with test compound dissolved in dimethylsulfoxide (DMSO) vehicle (to final volume 1 ml) for 4 minutes then incubate for 5 minutes with [^14 C]-arachidonic acid (Amersham, 59 Ci/mole) at a […] final concentration, and A23187 (Calbiochem) at a […] final concentration in […] of water:ethanol (9:1). Stop the reaction by addition of methanol (0.4 ml), and remove cellular debris by centrifugation. Run aliquots ([…]) of the incubations on a Waters two-pump HPLC system fitted with a Waters radial compression column (C18, 10 micron, 8×100 mm, micro-Bondapak) and C18 "Guard Pak". Initially elute the column at 3 ml/min with water:methanol:acetic acid (67:33:0.08) containing 1 mM EDTA adjusted to pH 6.0 with ammonium hydroxide (Pump A). At 4 minutes, establish a linear gradient to reach 100% methanol (Pump B) at 9 minutes. Between 13 and 14 minutes, exchange for the initial eluting solvent and by 19 minutes the column will be reequilibrated for the next sample. Analyze the effluent by a continuous flow radioactivity monitor (model ROMONA-D) interfaced with a Hewlett Packard Lab Automation System for quantitation of radioactive products.
These products are predominantly leukotriene C4 (LTC4), which elutes at 6 minutes, and 5-hydroxeicosatetraenoic acid (5-HETE), which elutes at 11 minutes (Musch et. al., supra). […] Doses in table 1 are 50 μM unless otherwise noted.

inhibition at 50 µM [%] | SMILES
84 | O=C(O)CCC/C=C/c1cccc(OCc2ccccc2)c1
74 | O=C(O)CCC/C=C/c1cccc(Oc2ccccc2)c1
7 | O=C(O)CCC/C=C/c1cccc(OCc2cccnc2)c1
23 | O=C(O)CCC/C=C/c1cccc(OCC2CCCCO2)c1 (stereo not drawn)
89 | CCOC(=O)CCC/C=C/c1cccc(OCc2c[nH]cn2)c1
0 | O=C(O)CCC/C=C/c1cccc(SCc2ccccc2)c1
80 | O=C(O)CCCC#Cc1cccc(OCc2ccccc2)c1
89 | O=C(O)CCC/C=C\c1cccc(OCc2ccccc2)c1
80 | O=C(O)CCCCCc1cccc(OCc2ccccc2)c1
